Source: publication PMC6895203, “Conformational pathway provides unique sensitivity to a synaptic mGluR” (Nature Communications, 2019)
Several values for one entry are separate records, joined by “and”; a condition that tells them apart may be missing. Identical values can stand only once. Entries after “also recorded” stand apart in the source; their conditions may differ. One block for each molecule: values may come before it.

Columns and labels:
[1] = molecular target: T1, SNAP-mGluR2(F756D)/mGluR7 heterodimer (Rattus norvegicus, UniProt P31421+P35400, F756D); assay: Whole-cell patch clamp of GIRK1 current, trans-activation in SNAP-mGluR2(F756D)/mGluR7; type: cell-based
T1 construct: HA (N); expressed in transfected cells; host or cells: HEK293 / HEK293T
Text: We explored this further by examining trans-activation, whereby binding of ligand to one subunit activates G-protein interaction in the partner subunit[46],[47]. To specifically activate only the mGluR2 subunit of the mGluR2/7 heterodimer, we selectively attached a photoswitched tethered ligand to mGluR2. […] SNAP-mGluR2(F756D) was co-expressed with wild-type mGluR7 along with the GIRK1 channel.
(§1) Illumination was applied to the entire field of view using either a Polychrome V monochromator (TILL Photonics) through a 20× objective, or a Lambda DG4 high-speed wavelength switcher (Sutter Instruments) with 380 nm and 500 nm filters through a 40× objective. pClamp software was used for both data acquisition and control of illumination.

[2] = molecular target: SNAP-mGluR2/SNAP-mGluR2 homodimer (mGluR2/2) (Rattus norvegicus, UniProt P31421); assay: smFRET on isolated immune-purified SNAP-mGluR2/2 dimers; settings: 10 nM DCG-IV
Text: (§3) Receptors expressed in HEK293T cells were labeled with a mixture of SNAP-reactive donor and acceptor fluorophores, detergent solubilized, immune-purified and tethered by biotinylated secondary antibodies at low density to coverslips that were passivated with a lawn of polyethylene glycol[13]. We used single-molecule FRET (smFRET) in order to measure the absolute FRET levels and dynamic changes associated with ligand-induced conformational changes in the LBDs. We imaged the donor and acceptor dyes using total internal reflection fluorescence (TIRF) microscopy[13],[31]

[3] = molecular target: CLIP-mGluR2/SNAP-mGluR7 heterodimer (mGluR2/7) (Rattus norvegicus, UniProt P31421+P35400); assay: smFRET on isolated CLIP-mGluR2/SNAP-mGluR7 heterodimers; settings: for effect on smFRET distribution: 0 glutamate, combination of mGluR2 NAM (11 µM Ro 64-5229 or 1.2 µM MNI-137) with mGluR7 NAM ([…] ADX 71743)
SNAP-mGluR2(F756D) = molecular target: T2, SNAP-mGluR2(F756D) (Rattus norvegicus, UniProt P31421, F756D); assay: Whole-cell patch clamp of GIRK1 current, SNAP-mGluR2(F756D) expressed alone; type: cell-based; settings: BGAG12 labeled, 380 nm
T2 construct: HA (N); expressed in transfected cells; host or cells: HEK293 / HEK293T
Text: We explored this further by examining trans-activation, whereby binding of ligand to one subunit activates G-protein interaction in the partner subunit[46],[47]. To specifically activate only the mGluR2 subunit of the mGluR2/7 heterodimer, we selectively attached a photoswitched tethered ligand to mGluR2.
as §1

[4] = molecular target: SNAP-mGluR7/SNAP-mGluR7 homodimer (mGluR7/7) (Rattus norvegicus, UniProt P35400); assay: smFRET on isolated immune-purified SNAP-mGluR7/7 dimers
Text: as §3

[5] = molecular target: T3, SNAP-mGluR7(K319C) homodimer (Rattus norvegicus, UniProt P35400, K319C); assay: smFRET on SNAP-mGluR7(K319C) homodimers conjugated to D-MAG-0; type: biochemical
T3 construct: HA (N); made in house; host or cells: HEK293T
Protocol: as §1, with “smFRET was performed on purified SNAP-mGluR7(K319C) homodimers that were labeled with donor and acceptor dyes on the SNAP and D-MAG-0 on K319C in the D-MAG-0 activated state. […] Illumination” for “Illumination”
(§2) (100 ms time resolution).

[6] = molecular target: T4, CLIP-mGluR2/SNAP-mGluR7(K319C) heterodimer (Rattus norvegicus, UniProt P31421+P35400, K319C); assay: smFRET on CLIP-mGluR2/SNAP-mGluR7(K319C) heterodimers with D-MAG-0 on mGluR7; type: biochemical; settings: trans D-MAG-0 only on the mGluR7 subunit
T4 construct: Flag (N); HA (N); made in house; host or cells: HEK293T
Text: as §1, §2

T1 sequence (P31421 19-872 F756D): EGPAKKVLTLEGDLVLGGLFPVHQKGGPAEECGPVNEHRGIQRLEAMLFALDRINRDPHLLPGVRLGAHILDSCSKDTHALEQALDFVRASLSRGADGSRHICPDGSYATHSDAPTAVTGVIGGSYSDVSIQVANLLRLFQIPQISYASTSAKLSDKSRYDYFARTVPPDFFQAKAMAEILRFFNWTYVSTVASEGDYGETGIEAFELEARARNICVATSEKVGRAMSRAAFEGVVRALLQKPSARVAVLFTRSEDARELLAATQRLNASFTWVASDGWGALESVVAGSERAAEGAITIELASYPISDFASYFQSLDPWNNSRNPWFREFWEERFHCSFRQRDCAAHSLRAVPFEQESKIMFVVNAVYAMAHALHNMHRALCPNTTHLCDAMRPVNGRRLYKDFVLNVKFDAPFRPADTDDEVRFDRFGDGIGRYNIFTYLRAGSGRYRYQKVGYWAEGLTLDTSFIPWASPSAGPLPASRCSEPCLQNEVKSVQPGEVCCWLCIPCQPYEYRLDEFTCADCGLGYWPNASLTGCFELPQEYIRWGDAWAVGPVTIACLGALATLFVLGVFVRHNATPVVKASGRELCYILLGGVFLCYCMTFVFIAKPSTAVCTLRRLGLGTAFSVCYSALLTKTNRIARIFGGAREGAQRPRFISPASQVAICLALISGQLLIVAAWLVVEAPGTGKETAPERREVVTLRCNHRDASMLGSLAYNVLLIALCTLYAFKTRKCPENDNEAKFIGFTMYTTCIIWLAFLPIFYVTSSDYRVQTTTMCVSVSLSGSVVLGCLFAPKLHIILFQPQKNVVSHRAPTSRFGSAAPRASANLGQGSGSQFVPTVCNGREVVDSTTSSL
T1 sequence (P35400 35-915): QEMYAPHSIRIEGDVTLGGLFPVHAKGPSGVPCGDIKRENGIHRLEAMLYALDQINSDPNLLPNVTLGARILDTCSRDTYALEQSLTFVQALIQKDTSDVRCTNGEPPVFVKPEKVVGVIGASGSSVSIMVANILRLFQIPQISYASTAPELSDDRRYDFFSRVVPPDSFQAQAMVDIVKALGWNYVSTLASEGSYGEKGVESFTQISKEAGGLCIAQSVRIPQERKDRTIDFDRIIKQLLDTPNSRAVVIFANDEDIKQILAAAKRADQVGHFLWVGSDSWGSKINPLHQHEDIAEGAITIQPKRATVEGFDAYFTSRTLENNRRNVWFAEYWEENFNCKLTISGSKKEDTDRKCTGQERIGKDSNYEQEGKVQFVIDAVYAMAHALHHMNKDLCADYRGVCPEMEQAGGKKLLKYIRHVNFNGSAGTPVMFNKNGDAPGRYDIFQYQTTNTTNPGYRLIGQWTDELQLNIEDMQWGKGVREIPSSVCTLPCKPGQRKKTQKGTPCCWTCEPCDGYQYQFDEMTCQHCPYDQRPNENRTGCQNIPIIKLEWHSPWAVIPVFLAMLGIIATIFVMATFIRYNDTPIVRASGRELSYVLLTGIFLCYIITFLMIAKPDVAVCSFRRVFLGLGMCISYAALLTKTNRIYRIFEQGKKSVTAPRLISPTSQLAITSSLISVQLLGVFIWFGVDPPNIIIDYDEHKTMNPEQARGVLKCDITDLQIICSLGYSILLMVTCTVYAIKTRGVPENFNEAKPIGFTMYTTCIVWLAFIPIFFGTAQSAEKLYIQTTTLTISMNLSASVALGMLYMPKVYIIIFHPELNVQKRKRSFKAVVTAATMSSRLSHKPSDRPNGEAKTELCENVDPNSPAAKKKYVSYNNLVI
Chain of CLIP-mGluR2/SNAP-mGluR7 heterodimer (mGluR2/7) (P31421 19-872): as the sequence (P31421 19-872 F756D) above, with D738F counted along it
Chain of CLIP-mGluR2/SNAP-mGluR7 heterodimer (mGluR2/7) (P35400 35-915): as the sequence (P35400 35-915) above
Chain of SNAP-mGluR7/SNAP-mGluR7 homodimer (mGluR7/7) (P35400 35-915): as above
T3 sequence (P35400 35-915 K319C): as the sequence (P35400 35-915) above, with K285C counted along it
T2 sequence (P31421 19-872 F756D): as the sequence (P31421 19-872 F756D) above
T4 sequence (P31421 19-872): as the sequence (P31421 19-872 F756D) above, with D738F counted along it
T4 sequence (P35400 35-915 K319C): as the sequence (P35400 35-915) above, with K285C counted along it
Chain of SNAP-mGluR2/SNAP-mGluR2 homodimer (mGluR2/2) (P31421 19-872): as the sequence (P31421 19-872 F756D) above, with D738F counted along it

Norm. (1 nM DCG-IV), Over 20% Photo ([1]; 1 nM DCG-IV, summary of cells Over 20% Photo): 0.04748
Norm. (1 nM DCG-IV), Under 15% Photo ([1]; 1 nM DCG-IV, summary of cells Under 15% Photo): 0.01667
Norm. (10 nM DCG-IV), Over 20% Photo ([1]; 10 nM DCG-IV, summary of cells Over 20% Photo): 0.2749
Norm. (10 nM DCG-IV), Under 15% Photo ([1]; 10 nM DCG-IV, summary of cells Under 15% Photo): 0.22
Norm. (100 nM DCG-IV), Over 20% Photo ([1]; 100 nM DCG-IV, summary of cells Over 20% Photo): 0.5816
Norm. (100 nM DCG-IV), Under 15% Photo ([1]; 100 nM DCG-IV, summary of cells Under 15% Photo): 0.3011
Norm. (1 uM DCG-IV) ([1]; 1 uM DCG-IV normalised to 1 mM Glu, single cells): 0.9403 and 0.9452 and 0.7554 and 0.9507
Norm. (1 uM DCG-IV), Over 20% Photo ([1]; 1 uM DCG-IV, summary of cells Over 20% Photo): 0.9454
Norm. (1 uM DCG-IV), Under 15% Photo ([1]; 1 uM DCG-IV, summary of cells Under 15% Photo): 0.7554
Norm. (10 uM DCG-IV) ([1]; 10 uM DCG-IV normalised to 1 mM Glu, single cells): 1
Current, 10 uM DCG-IV ([1]; 10 uM DCG-IV, single cells): -498.53
Norm. (10 uM DCG-IV), Over 20% Photo ([1]; 10 uM DCG-IV, summary of cells Over 20% Photo): 1
occupancy of the activated conformation [2]: ~ 5%
activated conformation occupancy, fold greater than mGluR2/2 ([3]; 10 nM DCG-IV): ~ 5 fold
occupancy of the activated conformation ([3]; 10 nM DCG-IV): ~ 25%
Molecule: N[C@H](C(=O)O)C1[C@@H](C(=O)O)[C@@H]1C(=O)O (some centres unmarked) [DCG-IV]
DCG-IV GIRK concentration-response relation compared to mGluR2/2 ([1]; patch clamp, foot of the relation): left-shifted; also recorded: more sensitive

Molecule: Nc1nc(OCc2ccc(CNC(=O)CCc3cn(CCOCCOCCOCCOCCOCCOCCOCCOCCOCCOCCOCCOCCC(=O)NCC(=O)Nc4ccc(/N=N/c5ccc(NC(=O)CCC[C@@H](C[C@H](N)C(=O)O)C(=O)O)cc5)cc4)nn3)cc2)c2nc[nH]c2n1 [BGAG12, benzylguanine azobenzene glutamate]
photocurrent (SNAP-mGluR2(F756D)): no photocurrent

Molecule: Clc1cccc(Cl)c1/C(=C/n1cncn1)OC1CCCCCC1 [Ro 64-5229]
effect on smFRET distribution [3]: narrowed the smFRET distribution and shifted it to the right

Molecule: CCc1nc2c(o1)CC(c1ccc(C)cc1C)CC2=O (centres unmarked) [ADX71743]
effect on smFRET distribution [3]: narrowed the smFRET distribution and shifted it to the right

Molecule: MNI-137
effect on smFRET distribution [3]: narrowed the smFRET distribution and shifted it to the right

normalized low FRET area (Supplemental Figure 2a), mGluR7 LSP4 ([4]; agonist 0.003 (M)): 1
normalized low FRET area (Supplemental Figure 2a), mGluR7 LSP4 ([4]; agonist 1.00E-03 (M)): 0.8692
normalized low FRET area (Supplemental Figure 2a), mGluR7 LSP4 ([4]; agonist 1.00E-06 (M)): 0.03798
normalized low FRET area (Supplemental Figure 2a), mGluR7 LSP4 ([4]; agonist 1.00E-07 (M)): 0.02088
normalized low FRET area (Supplemental Figure 2a), mGluR7 LSP4 ([4]; agonist 2.00E-05 (M)): 0.3163
receptor occupancy at 1000 µM ([4]; read-out: occupancy of the activated conformation): > 50%
receptor occupancy at 3000 µM ([4]; read-out: occupancy of the low FRET conformation): ~65%
efficacy, fold greater than that of glutamate ([4]; smFRET): at least 6 fold
activation ([3]; 1 mM LSP4-2022): almost complete
apparent affinity of mGluR7 subunit, fold higher than when partnered with another mGluR7 ([3]; smFRET): approximately 1000 fold
Molecule: N[C@@H](CCP(=O)(O)C(O)c1ccc(OCC(=O)O)cc1)C(=O)O (some centres unmarked) [LSP4-2022]
smFRET traces ([4]; 20 μM LSP4-2022): frequent transitions to the low FRET activated conformation
shift of smFRET distribution ([3]; 1 µM LSP4-2022): slightly more than half-way toward the activated low FRET state

Molecule: NC(CC(CCC(=O)Nc1ccc(N=Nc2ccc(NC(=O)CN3C(=O)C=CC3=O)cc2)cc1)C(=O)O)C(=O)O (mixture of isomers) [D-MAG-0, maleimide-azobenzene-glutamate]
stabilization of activated conformation, fold more effective than saturating free glutamate ([5]; trans D-MAG-0): approximately 5 fold
occupancy of the activated low FRET state ([5]; trans D-MAG-0 on both subunits): ~ 50%
time in the activated low-FRET state [6]: ~ 90%
